Values of other authors, collected in patent publication US20210023041A1, “FORMULATIONS AND COMPOSITIONS OF DOCETAXEL” (Zhuhai Beihai Biotech Co., Ltd., priority 2018, published 2021).

in vitro binding to plasma proteins (plasma proteins; in three cancer patients): approximately 97% | protein bound (plasma proteins; in vitro studies, mainly to α1-acid glycoprotein, albumin, and lipoproteins): about 94% | solubility in water: practically insoluble in water
SMILES: CC(=O)O[C@@]12CO[C@@H]1C[C@H](O)[C@@]1(C)C(=O)[C@H](O)C3=C(C)[C@@H](OC(=O)[C@H](O)[C@@H](NC(=O)OC(C)(C)C)c4ccccc4)C[C@@](O)([C@@H](OC(=O)c4ccccc4)[C@H]21)C3(C)C [Docetaxel]
potency in inhibiting microtubule depolymerization relative to paclitaxel (microtubule): twice as potent as paclitaxel
